Several values for one entry are separate records, joined by “and”; a condition that tells them apart may be missing. Equal entries are not always repeated. Inconclusive results and toxic doses are left out.
Test system: P388 leukemia ip, CD2F1 mice, survival T/C
Experiment: NCI In Vivo Anticancer Drug Screen. Data for tumor model P388 Leukemia (intraperitoneal) in CD2F1 (CDF1) mice
Settings: endpoint: median survival time, higher = longer survival
Procedure, shortened: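 Mice carrying the transplanted tumor received test compound or vehicle. Survival was recorded in each group, and the value is the treated-group measurement divided by that of the vehicle-treated control group.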

[1] = dose: 50.0 mg/kg/injection, schedule: Q01DX009 (ip), vehicle: saline with Tween-80
[2] = dose: 50.0 mg/kg/injection, schedule: Q01DX009 (ip), vehicle: Klucel (hydroxypropylcellulose) (HPC)
[3] = dose: 100.0 mg/kg/injection, schedule: Q01DX009 (ip), vehicle: Klucel (hydroxypropylcellulose) (HPC)
[4] = dose: 200.0 mg/kg/injection, schedule: Q01DX009 (ip), vehicle: Klucel (hydroxypropylcellulose) (HPC)
[5] = dose: 100.0 mg/kg/injection, schedule: Q01DX009 (ip), vehicle: saline with Tween-80
[6] = dose: 200.0 mg/kg/injection, schedule: Q01DX009 (ip), vehicle: saline with Tween-80
[7] = dose: 60.0 mg/kg/injection, schedule: Q01DX005 (ip), vehicle: saline with Tween-80
[8] = dose: 120.0 mg/kg/injection, schedule: Q01DX005 (ip), vehicle: saline with Tween-80
[9] = dose: 240.0 mg/kg/injection, schedule: Q01DX005 (ip), vehicle: saline with Tween-80
[10] = dose: 50.0 mg/kg/injection, schedule: Q01DX005 (ip), vehicle: saline with Tween-80
[11] = dose: 100.0 mg/kg/injection, schedule: Q01DX005 (ip), vehicle: saline with Tween-80
[12] = dose: 200.0 mg/kg/injection, schedule: Q01DX005 (ip), vehicle: saline with Tween-80
[13] = dose: 50.0 mg/kg/injection, schedule: Q01DX005 (ip), vehicle: Klucel (hydroxypropylcellulose) (HPC)
[14] = dose: 100.0 mg/kg/injection, schedule: Q01DX005 (ip), vehicle: Klucel (hydroxypropylcellulose) (HPC)
[15] = dose: 200.0 mg/kg/injection, schedule: Q01DX005 (ip), vehicle: Klucel (hydroxypropylcellulose) (HPC)

Compound: CC1(C)N=C(N)N=C(N)N1c1ccc(CCCCc2ccc(S(=O)(=O)F)cc2)cc1
- T/C (dose: 12.0 mg/kg/injection, schedule: Q01DX009 (ip), vehicle: saline sonified): 152 % of control
- T/C (dose: 18.0 mg/kg/injection, schedule: Q01DX009 (ip), vehicle: saline sonified): 152 % of control
- T/C [1]: 95 % of control
- T/C (dose: 50.0 mg/kg/injection, schedule: Q04DX003 (ip), vehicle: saline with Tween-80): 100 % of control

Compound: CNC(=O)OCC[N+](C)(C)C
- T/C (dose: 3.12 mg/kg/injection, schedule: Q01DX009 (ip), vehicle: saline): 101 % of control
- T/C (dose: 6.25 mg/kg/injection, schedule: Q01DX009 (ip), vehicle: saline): 101 % of control

Compound: CCc1nc(N)nc(N)c1-c1ccc(NC(C)c2ccccc2)c([N+](=O)[O-])c1 (centres undefined)
- T/C (dose: 3.75 mg/kg/injection, schedule: Q01DX005 (ip), vehicle: Klucel (hydroxypropylcellulose) (HPC)): 101 % of control
- T/C (dose: 7.5 mg/kg/injection, schedule: Q01DX005 (ip), vehicle: Klucel (hydroxypropylcellulose) (HPC)): 101 % of control and 107 % of control
- T/C (dose: 15.0 mg/kg/injection, schedule: Q01DX005 (ip), vehicle: Klucel (hydroxypropylcellulose) (HPC)): 112 % of control and 113 % of control

Compound: O=C(/C=C/c1ccc(Cl)c(Cl)c1)c1cccc(O)c(=O)c1
- T/C (dose: 25.0 mg/kg/injection, schedule: Q01DX009 (ip), vehicle: Klucel (hydroxypropylcellulose) (HPC)): 102 % of control
- T/C [2]: 111 % of control and 118 % of control
- T/C [3]: 118 % of control
- T/C [4]: 118 % of control

Compound: CC1=C(CO)C(=O)OC(C(C)C2CCC3C4CC5OC56C(O)C(N5CCOCC5)CC(=O)C6(C)C4CCC23C)C1 (centres undefined)
- T/C (dose: 8.25 mg/kg/injection, schedule: Q01DX005 (ip), vehicle: Klucel (hydroxypropylcellulose) (HPC)): 103 % of control
- T/C (dose: 16.5 mg/kg/injection, schedule: Q01DX005 (ip), vehicle: Klucel (hydroxypropylcellulose) (HPC)): 99 % of control
- T/C (dose: 33.0 mg/kg/injection, schedule: Q01DX005 (ip), vehicle: Klucel (hydroxypropylcellulose) (HPC)): 97 % of control
- T/C (dose: 66.0 mg/kg/injection, schedule: Q01DX005 (ip), vehicle: Klucel (hydroxypropylcellulose) (HPC)): 97 % of control
- T/C (dose: 132.0 mg/kg/injection, schedule: Q01DX005 (ip), vehicle: Klucel (hydroxypropylcellulose) (HPC)): 103 % of control

Compound: COc1ccc(C2OC23Cc2ccccc2C3=O)cc1OC (centres undefined)
- T/C [1]: 109 % of control
- T/C [5]: 100 % of control
- T/C [6]: 88 % of control

Compound: COC(=O)N/N=C\c1ccc(O)c(OC)c1
- T/C (dose: 50.0 mg/kg/injection, schedule: Q04DX003 (ip), vehicle: saline): 97 % of control
- T/C (dose: 100.0 mg/kg/injection, schedule: Q04DX003 (ip), vehicle: saline): 101 % of control
- T/C (dose: 200.0 mg/kg/injection, schedule: Q04DX003 (ip), vehicle: saline): 97 % of control
- T/C (dose: 400.0 mg/kg/injection, schedule: Q04DX003 (ip), vehicle: saline): 101 % of control

Compound: CN(C)c1nc(-c2ccccc2)c(Cc2ccccc2)c(=O)o1
- T/C [7]: 99 % of control
- T/C [8]: 92 % of control
- T/C [9]: 89 % of control

Compound: CN(C)c1c(-c2ccccc2)nnc(-c2ccccc2)c1-c1ccccc1
- T/C (dose: 100.0 mg/kg/injection, schedule: Q01DX001 (ip), vehicle: Klucel (hydroxypropylcellulose) (HPC)): 103 % of control
- T/C (dose: 200.0 mg/kg/injection, schedule: Q01DX001 (ip), vehicle: Klucel (hydroxypropylcellulose) (HPC)): 100 % of control
- T/C (dose: 400.0 mg/kg/injection, schedule: Q01DX001 (ip), vehicle: Klucel (hydroxypropylcellulose) (HPC)): 101 % of control

Compound: CC1(C)CC(OS(=O)(=O)c2ccc(Br)cc2)CC(C)(C)N1O
- T/C [2]: 93 % of control
- T/C [3]: 99 % of control
- T/C [4]: 97 % of control

Compound: C/C=C(/C)C(=O)O[C@H]1CC[C@@]2(C)[C@@H]3CC[C@H]4[C@]5(O)C[C@H](O)[C@@]6(O)[C@@H](CN7C[C@@H](C)CC[C@H]7[C@@]6(C)O)[C@]5(O)C[C@@]42O[C@@]13O
- T/C (dose: 0.39 mg/kg/injection, schedule: Q01DX009 (ip), vehicle: saline with Tween-80): 97 % of control
- T/C (dose: 0.5 mg/kg/injection, schedule: Q01DX009 (ip), vehicle: saline): 95 % of control
- T/C (dose: 0.78 mg/kg/injection, schedule: Q01DX009 (ip), vehicle: saline with Tween-80): 101 % of control
- T/C (dose: 1.0 mg/kg/injection, schedule: Q01DX009 (ip), vehicle: saline): 109 % of control
- T/C (dose: 1.56 mg/kg/injection, schedule: Q01DX009 (ip), vehicle: saline with Tween-80): 101 % of control
- T/C (dose: 2.0 mg/kg/injection, schedule: Q01DX009 (ip), vehicle: saline): 109 % of control
- T/C (dose: 3.12 mg/kg/injection, schedule: Q01DX009 (ip), vehicle: saline with Tween-80): 97 % of control
- T/C (dose: 6.25 mg/kg/injection, schedule: Q01DX009 (ip), vehicle: saline with Tween-80): 88 % of control

Compound: c1ccc2sc(SSN3CC4CCC(CC4)C3)nc2c1
- T/C (dose: 12.5 mg/kg/injection, schedule: Q01DX009 (ip), vehicle: saline with Tween-80): 102 % of control
- T/C (dose: 25.0 mg/kg/injection, schedule: Q01DX009 (ip), vehicle: saline with Tween-80): 107 % of control
- T/C [1]: 123 % of control
- T/C [5]: 115 % of control

Compound: Nc1nc(N)c2ncn(-c3ccc(Cl)c(Cl)c3)c2n1
- T/C [10]: 101 % of control
- T/C [11]: 97 % of control
- T/C [12]: 106 % of control

Compound: COc1cc2c(cc1OC)C(c1c(Cl)cccc1Cl)=NCC2
- T/C [13]: 96 % of control
- T/C [14]: 105 % of control
- T/C [15]: 110 % of control

Compound: O=C(Nc1cccc2ccccc12)ON1C(=O)c2ccccc2C1=O
- T/C (dose: 25.0 mg/kg/injection, schedule: Q01DX005 (ip), vehicle: saline with Tween-80): 92 % of control
- T/C [10]: 99 % of control and 113 % of control and 96 % of control
- T/C [11]: 110 % of control and 119 % of control

Compound: CN(C)c1ccc(N=Nc2ccc3ccc4c(N=Nc5ccc(N(C)C)cc5)ccc5ccc2c3c54)cc1
- T/C [2]: 106 % of control
- T/C [3]: 103 % of control
- T/C [4]: 103 % of control

Compound: CNc1ccccc1C(=O)NCCCN
- T/C [13]: 98 % of control
- T/C [14]: 95 % of control
- T/C [15]: 95 % of control

Compound: CC(=O)c1ccc(OCc2ccccc2)c(OCc2ccccc2)c1
- T/C [1]: 115 % of control
- T/C [5]: 106 % of control
- T/C [6]: 95 % of control
- T/C (dose: 400.0 mg/kg/injection, schedule: Q01DX009 (ip), vehicle: saline with Tween-80): 93 % of control

Compound: c1ccc2c(c1)NC1=C(CSCC1)c1nncn1-2
- T/C (dose: 100.0 mg/kg/injection, schedule: Q05DX002 (ip), vehicle: Klucel (hydroxypropylcellulose) (HPC)): 104 % of control
- T/C (dose: 200.0 mg/kg/injection, schedule: Q05DX002 (ip), vehicle: Klucel (hydroxypropylcellulose) (HPC)): 100 % of control
- T/C (dose: 400.0 mg/kg/injection, schedule: Q05DX002 (ip), vehicle: Klucel (hydroxypropylcellulose) (HPC)): 109 % of control

Compound: O=C1c2ccccc2C(=O)C1(Br)C(Cl)c1ccccc1 (centres undefined)
- T/C [2]: 90 % of control
- T/C [3]: 95 % of control
- T/C (dose: 100.0 mg/kg/injection, schedule: Q04DX003 (ip), vehicle: Klucel (hydroxypropylcellulose) (HPC)): 104 % of control
- T/C (dose: 200.0 mg/kg/injection, schedule: Q04DX003 (ip), vehicle: Klucel (hydroxypropylcellulose) (HPC)): 100 % of control

Compound: COc1ccc(OCC2CN(C)CCC2c2ccccc2)cc1 (centres undefined)
- T/C (dose: 12.5 mg/kg/injection, schedule: Q01DX009 (ip), vehicle: saline): 99 % of control
- T/C (dose: 25.0 mg/kg/injection, schedule: Q01DX009 (ip), vehicle: saline): 100 % of control
- T/C (dose: 50.0 mg/kg/injection, schedule: Q01DX009 (ip), vehicle: saline): 101 % of control and 94 % of control

Compound: CCn1c(=O)c2[nH]c(Br)nc2n(C2CC2)c1=O
- T/C [2]: 104 % of control
- T/C [3]: 106 % of control

Compound: Cc1cc(C)nc(NS(=O)(=O)c2ccc(Nc3c4ccccc4nc4ncccc34)cc2)n1
- T/C [7]: 97 % of control
- T/C [8]: 90 % of control
- T/C [9]: 90 % of control

Compound: COc1cc([N+](=O)[O-])c(S(=O)(=O)O)cc1N
- T/C [7]: 99 % of control
- T/C [8]: 94 % of control
- T/C [9]: 93 % of control

Compound: C[Si](C)(C)Cn1ccc2ccccc21
- T/C [10]: 100 % of control
- T/C [11]: 105 % of control
- T/C [12]: 108 % of control

Compound: Cc1cc(NCc2ccccc2)cc(=O)[nH]1
- T/C (dose: 100.0 mg/kg/injection, schedule: Q01DX001 (ip), vehicle: saline with Tween-80): 95 % of control
- T/C (dose: 200.0 mg/kg/injection, schedule: Q01DX001 (ip), vehicle: saline with Tween-80): 89 % of control
- T/C (dose: 400.0 mg/kg/injection, schedule: Q01DX001 (ip), vehicle: saline with Tween-80): 87 % of control
